In US20250171437A1 (Agios Pharmaceuticals,Inc., priority 2022, published 2025):

Target: T1, human PAH with the R408W mutation (A375 R408W cells) (Homo sapiens, UniProt P00439, R408W)
T1 construct: expressed in transfected cells
T1 sequence (P00439 1-452 R408W): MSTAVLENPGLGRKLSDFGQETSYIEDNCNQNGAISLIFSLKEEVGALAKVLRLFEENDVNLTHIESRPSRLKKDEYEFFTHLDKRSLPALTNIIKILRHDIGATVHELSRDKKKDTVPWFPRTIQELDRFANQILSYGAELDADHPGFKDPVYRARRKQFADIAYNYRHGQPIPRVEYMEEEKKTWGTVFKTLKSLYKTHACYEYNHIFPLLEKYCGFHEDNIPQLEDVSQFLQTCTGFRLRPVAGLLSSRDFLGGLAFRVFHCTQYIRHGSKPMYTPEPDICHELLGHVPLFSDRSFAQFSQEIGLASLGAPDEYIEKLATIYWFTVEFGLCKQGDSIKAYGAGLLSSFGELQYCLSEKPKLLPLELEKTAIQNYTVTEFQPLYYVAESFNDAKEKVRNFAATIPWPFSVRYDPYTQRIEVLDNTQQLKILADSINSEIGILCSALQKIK
Experiment: Cell Based Phenylalanine Flux Assay
Conditions: A375 R408W cells; 24 hrs with compound, then 20 μM sepiapterin and 800 μM 13C9,15N-Phenylalanine for 4 hours; 13C-Tyrosine by LC-MS; average where tested multiple times
Outline: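 A375 cells stably expressing lentiviral human PAH R408W were treated with compounds (10-point 2-fold dilutions, 0.5% DMSO, duplicate) for 24 h at 37 °C. Then 20 μM sepiapterin and 800 μM 13C9,15N-Phe were added for 4 h; media 13C-Tyr was measured by LC-MS to give AC50.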

Structure (SMILES) | AC50
Cn1nc(C(F)F)nc1C(=O)N1CCc2[nH]cnc2[C@@H]1c1nc2cccc(F)c2o1 [Example 286, (R)-(3-(difluoromethyl)-1-methyl-1H-1,2,4-triazol-5-yl)(4-(7-fluorobenzo[d]oxazol-2-yl)-6,7-dihydro-1H-imidazo[4,5-c]pyridin-5(4H)-yl)methanone] | 1 to 5 µM
O=C(c1ccnn1C(F)(F)F)N1CCc2[nH]cnc2[C@H]1c1nc2ccc(F)cc2o1 [Example 287, (S)-(4-(6-fluorobenzo[d]oxazol-2-yl)-6,7-dihydro-1H-imidazo[4,5-c]pyridin-5(4H)-yl)(1-(trifluoromethyl)-1H-pyrazol-5-yl)methanone] | 0.5 to 1 µM
O=C(c1ccnn1C(F)(F)F)N1CCc2[nH]cnc2[C@@H]1c1nc2ccc(F)cc2o1 [Example 288, (R)-(4-(6-fluorobenzo[d]oxazol-2-yl)-6,7-dihydro-1H-imidazo[4,5-c]pyridin-5(4H)-yl)(1-(trifluoromethyl)-1H-pyrazol-5-yl)methanone] | 1 to 5 µM
O=C(c1ccnn1C(F)(F)F)N1CCc2[nH]cnc2[C@H]1c1nc2cccc(F)c2o1 [Example 289, (S)-(4-(7-fluorobenzo[d]oxazol-2-yl)-6,7-dihydro-1H-imidazo[4,5-c]pyridin-5(4H)-yl)(1-(trifluoromethyl)-1H-pyrazol-5-yl)methanone] | 0.5 to 1 µM
O=C(c1ccnn1C(F)(F)F)N1CCc2[nH]cnc2[C@@H]1c1nc2cccc(F)c2o1 [Example 290, (R)-(4-(7-fluorobenzo[d]oxazol-2-yl)-6,7-dihydro-1H-imidazo[4,5-c]pyridin-5(4H)-yl)(1-(trifluoromethyl)-1H-pyrazol-5-yl)methanone] | 1 to 5 µM
O=C(c1ccnn1C(F)(F)F)N1CCc2[nH]cnc2[C@H]1c1nc2c(F)cccc2o1 [Example 293, (S)-(4-(4-fluorobenzo[d]oxazol-2-yl)-6,7-dihydro-1H-imidazo[4,5-c]pyridin-5(4H)-yl)(1-(trifluoromethyl)-1H-pyrazol-5-yl)methanone] | ≤ 0.5 µM
O=C(c1ccnn1C(F)(F)F)N1CCc2[nH]cnc2[C@@H]1c1nc2c(F)cccc2o1 [Example 294, (R)-(4-(4-fluorobenzo[d]oxazol-2-yl)-6,7-dihydro-1H-imidazo[4,5-c]pyridin-5(4H)-yl)(1-(trifluoromethyl)-1H-pyrazol-5-yl)methanone] | 1 to 5 µM
O=C(c1ocnc1C(F)F)N1CCc2[nH]cnc2[C@H]1c1nc2c(F)cc(F)cc2o1 [Example 301, (S)-(4-(4,6-difluorobenzo[d]oxazol-2-yl)-6,7-dihydro-1H-imidazo[4,5-c]pyridin-5(4H)-yl)(4-(difluoromethyl)oxazol-5-yl)methanone] | ≤ 0.5 µM
O=C(c1ocnc1C(F)F)N1CCc2[nH]cnc2[C@@H]1c1nc2c(F)cc(F)cc2o1 [Example 302, (R)-(4-(4,6-difluorobenzo[d]oxazol-2-yl)-6,7-dihydro-1H-imidazo[4,5-c]pyridin-5(4H)-yl)(4-(difluoromethyl)oxazol-5-yl)methanone] | 1 to 5 µM
O=C(c1nnc(-c2ccccn2)o1)N1CCc2[nH]cnc2[C@H]1c1nc2ccc(F)cc2o1 [Example 303, (S)-(4-(6-fluorobenzo[d]oxazol-2-yl)-6,7-dihydro-1H-imidazo[4,5-c]pyridin-5(4H)-yl)(5-(pyridin-2-yl)-1,3,4-oxadiazol-2-yl)methanone] | ≤ 0.5 µM
O=C(c1nnc(-c2ccccn2)o1)N1CCc2[nH]cnc2[C@@H]1c1nc2ccc(F)cc2o1 [Example 304, (R)-(4-(6-fluorobenzo[d]oxazol-2-yl)-6,7-dihydro-1H-imidazo[4,5-c]pyridin-5(4H)-yl)(5-(pyridin-2-yl)-1,3,4-oxadiazol-2-yl)methanone] | 1 to 5 µM
O=C(c1ocnc1C(F)F)N1CCc2[nH]cnc2[C@H]1c1nc2ccc(F)c(F)c2o1 [Example 305, (S)-(4-(6,7-difluorobenzo[d]oxazol-2-yl)-6,7-dihydro-1H-imidazo[4,5-c]pyridin-5(4H)-yl)(4-(difluoromethyl)oxazol-5-yl)methanone] | ≤ 0.5 µM

The next lines start with the values.

AC50 | Structure (SMILES)
≤ 0.5 µM | CN(C)C(C)(C)c1nc(C(F)F)c(C(=O)N2CCc3[nH]cnc3[C@H]2c2nc3cc(F)ccc3o2)o1 [Example 291, (S)-(4-(difluoromethyl)-2-(2-(dimethylamino)propan-2-yl)oxazol-5-yl)(4-(5-fluorobenzo[d]oxazol-2-yl)-6,7-dihydro-1H-imidazo[4,5-c]pyridin-5(4H)-yl)methanone]
≤ 0.5 µM | CN(C)C(C)(C)c1nc(C(F)F)c(C(=O)N2CCc3[nH]cnc3[C@@H]2c2nc3cc(F)ccc3o2)o1 [Example 292, (R)-(4-(difluoromethyl)-2-(2-(dimethylamino)propan-2-yl)oxazol-5-yl)(4-(5-fluorobenzo[d]oxazol-2-yl)-6,7-dihydro-1H-imidazo[4,5-c]pyridin-5(4H)-yl)methanone]
0.5 to 1 µM | O=C(c1ocnc1C(F)F)N1CCc2[nH]cnc2[C@H]1c1nc2cc(F)c(F)cc2o1 [Example 295, (S)-(4-(5,6-difluorobenzo[d]oxazol-2-yl)-6,7-dihydro-1H-imidazo[4,5-c]pyridin-5(4H)-yl)(4-(difluoromethyl)oxazol-5-yl)methanone]
1 to 5 µM | O=C(c1ocnc1C(F)F)N1CCc2[nH]cnc2[C@@H]1c1nc2cc(F)c(F)cc2o1 [Example 296, (R)-(4-(5,6-difluorobenzo[d]oxazol-2-yl)-6,7-dihydro-1H-imidazo[4,5-c]pyridin-5(4H)-yl)(4-(difluoromethyl)oxazol-5-yl)methanone]
≤ 0.5 µM | CC(C)(O)c1nc(C(F)F)c(C(=O)N2CCc3[nH]cnc3[C@H]2c2nc3ccc(F)c(F)c3o2)o1 [Example 297, (S)-(4-(6,7-difluorobenzo[d]oxazol-2-yl)-6,7-dihydro-1H-imidazo[4,5-c]pyridin-5(4H)-yl)(4-(difluoromethyl)-2-(2-hydroxypropan-2-yl)oxazol-5-yl)methanone]
1 to 5 µM | CC(C)(O)c1nc(C(F)F)c(C(=O)N2CCc3[nH]cnc3[C@@H]2c2nc3ccc(F)c(F)c3o2)o1 [Example 298, (R)-(4-(6,7-difluorobenzo[d]oxazol-2-yl)-6,7-dihydro-1H-imidazo[4,5-c]pyridin-5(4H)-yl)(4-(difluoromethyl)-2-(2-hydroxypropan-2-yl)oxazol-5-yl)methanone]
≤ 0.5 µM | CC(C)(O)c1nc(C(F)F)c(C(=O)N2CCc3[nH]cnc3[C@H]2c2nc3c(F)cc(F)cc3o2)o1 [Example 299, (S)-(4-(4,6-difluorobenzo[d]oxazol-2-yl)-6,7-dihydro-1H-imidazo[4,5-c]pyridin-5(4H)-yl)(4-(difluoromethyl)-2-(2-hydroxypropan-2-yl)oxazol-5-yl)methanone]
1 to 5 µM | CC(C)(O)c1nc(C(F)F)c(C(=O)N2CCc3[nH]cnc3[C@@H]2c2nc3c(F)cc(F)cc3o2)o1 [Example 300, (R)-(4-(4,6-difluorobenzo[d]oxazol-2-yl)-6,7-dihydro-1H-imidazo[4,5-c]pyridin-5(4H)-yl)(4-(difluoromethyl)-2-(2-hydroxypropan-2-yl)oxazol-5-yl)methanone]
1 to 5 µM | O=C(c1ocnc1C(F)F)N1CCc2[nH]cnc2[C@@H]1c1nc2ccc(F)c(F)c2o1 [Example 306, (R)-(4-(6,7-difluorobenzo[d]oxazol-2-yl)-6,7-dihydro-1H-imidazo[4,5-c]pyridin-5(4H)-yl)(4-(difluoromethyl)oxazol-5-yl)methanone]
≤ 0.5 µM | CC(C)(O)c1nc(C(F)F)c(C(=O)N2CCc3[nH]cnc3[C@H]2c2nc3cc(F)cc(F)c3o2)o1 [Example 307, (S)-(4-(5,7-difluorobenzo[d]oxazol-2-yl)-6,7-dihydro-1H-imidazo[4,5-c]pyridin-5(4H)-yl)(4-(difluoromethyl)-2-(2-hydroxypropan-2-yl)oxazol-5-yl)methanone]
≤ 0.5 µM | CC(C)(O)c1nc(C(F)F)c(C(=O)N2CCc3[nH]cnc3[C@@H]2c2nc3cc(F)cc(F)c3o2)o1 [Example 308, (R)-(4-(5,7-difluorobenzo[d]oxazol-2-yl)-6,7-dihydro-1H-imidazo[4,5-c]pyridin-5(4H)-yl)(4-(difluoromethyl)-2-(2-hydroxypropan-2-yl)oxazol-5-yl)methanone]
≤ 0.5 µM | O=C(c1ocnc1C(F)F)N1CCc2[nH]cnc2[C@H]1c1nc2cc(F)cc(F)c2o1 [Example 309, (S)-(4-(5,7-difluorobenzo[d]oxazol-2-yl)-6,7-dihydro-1H-imidazo[4,5-c]pyridin-5(4H)-yl)(4-(difluoromethyl)oxazol-5-yl)methanone]
0.5 to 1 µM | O=C(c1ocnc1C(F)F)N1CCc2[nH]cnc2[C@@H]1c1nc2cc(F)cc(F)c2o1 [Example 310, (R)-(4-(5,7-difluorobenzo[d]oxazol-2-yl)-6,7-dihydro-1H-imidazo[4,5-c]pyridin-5(4H)-yl)(4-(difluoromethyl)oxazol-5-yl)methanone]
≤ 0.5 µM | Cc1ccc2oc([C@@H]3c4nc[nH]c4CCN3C(=O)c3oc(C(C)(C)O)nc3C(F)F)nc2c1 [Example 311, (S)-(4-(difluoromethyl)-2-(2-hydroxypropan-2-yl)oxazol-5-yl)(4-(5-methylbenzo[d]oxazol-2-yl)-6,7-dihydro-1H-imidazo[4,5-c]pyridin-5(4H)-yl)methanone]
